Assay results: patent publication US20170136008A1, “OXABICYCLOHEPTANES AND OXABICYCLOHEPTENES FOR THE TREATMENT OF OVARIAN CANCER” (priority 2014, published 2017)

How the values were obtained:
Format in all cases: cell-based, human
[1] = tested on: PEO4 ovarian cancer cell line; experiment: MTT cytotoxicity assay, PEO4; conditions: PEO4; MTT; read-out: IC50, viability of ovarian cancer cell line
Method: (§1) SKOV-3 ovarian cancer cells were purchased from American Type Culture Collection (ATCC) (Manassas, Va.). SKOV-3 cells were cultured in McCoy's 5A medium (ATCC, Manassas, Va.) supplemented with 10% fetal bovine serum and 100 units/mL penicillin G sodium, 100 ug/mL streptomycin sulfate, and 292 μg/ml, L-glutamine (BioWhittaker, Wakersville, Md.). Luciferase-expressing cells were generated by infecting SKOV-3 cells with pCLNCX-luciferase retrovirus (SKOV-3-Luc) as previously reported (Wei, B. R. et al. 2009). Human OVCAR-8 ovarian cancer cells were provided by the National Cancer Institute (part of the NCI-60 collection). The PEO1, PEO4, and PEO6 ovarian cancer cell lines have previously been characterized (Langdon, S. P. et al. 1988) and were kindly provided by Dr. Ian Goldlust (National Center for Advancing Translational Sciences, Shady Grove, Md.). […]
(§2) Cell survival was measured by the 3-(4,5-dimethylthiazol-2-yl)-2,5-diphenyltetrazolium bromide (MTT, Invitrogen) assay. […] Absorbance values were determined at […] on a Spectra Max 250 spectrophotometer (Molecular Devices, Sunnyvale, Calif.). […] Cell viability was analyzed via the MTT assay as described above. […]

SKOV-3 cells = experiment: Cell-cycle analysis (FACS), SKOV-3
Method: (§3) For cell-cycle analysis, cells were washed with PBS and fixed overnight in ice-cold 70% ethanol and stored at 4° C. Cells were then centrifuged and resuspended in 100 U RNAse (Sigma-Aldrich), and incubated at 37° C. for 20 min. Propidiumidodide solution (Invitrogen, 500 μL, 50 μg/mL in DPBS) was added to each tube and incubated in the dark at 4° C. overnight. Flow cytometry analysis was performed with CellQuestPro and data analysis was completed with ModFit LT. All data is in triplicate and presented as a percent mean±SD.

[2] = tested on: PEO1-Missense (PEO-1m) ovarian cancer cell line; experiment: MTT cytotoxicity assay, PEO1-Missense; conditions: PEO1-Missense; MTT; read-out: IC50, viability of ovarian cancer cell line
Method: as §1, §2

OVCAR-8 cells = experiment: Cell-cycle analysis (FACS), OVCAR-8; conditions: cisplatin 5 μM
Method: as §3

[3] = tested on: OVCAR-8 PP2Ac shRNA-expressing cells; experiment: Cell viability (MTT) assay, OVCAR-8 PP2Ac shRNA; conditions: OVCAR-8 PP2Ac shRNA
Method: Cell survival was measured by the 3-(4,5-dimethylthiazol-2-yl)-2,5-diphenyltetrazolium bromide (MTT, Invitrogen) assay. Cells were seeded at a density of 5,000 cells per well in 96-well plates and incubated at 37° C. in humidified 5% CO2 for 24 hours. The 50% inhibitory concentration (IC50) values were defined as the drug concentrations required to reduce cellular proliferation to 50% of the untreated control well. […] All MTT assays were carried out according to the manufacturer's instructions (Molecular Probes, Eugen, Oreg.). Absorbance values were determined at […] on a Spectra Max 250 spectrophotometer (Molecular Devices, Sunnyvale, Calif.). All MTT assays were performed in triplicate. […] Cells were treated with both drugs for 72 h. Cell viability was analyzed via the MTT assay as described above. Experiments were performed in triplicate, and the data are presented as a percent mean±SD.
To stably knockdown expression of PP2AC, a pLKO.1-puro plasmid-based […] shRNA targeting the sequence: […] (clone ID:TRCN0000002483, Sigma-Aldrich) was employed (PP2AC-shRNA). Additionally, a non-targeting shRNA plasmid (NT-shRNA) that targets no known human sequence was utilized as a control. […]

[4] = tested on: PEO6 ovarian cancer cell line; experiment: MTT cytotoxicity assay, PEO6; conditions: read-out: IC50, viability of ovarian cancer cell line
Method: as §1, §2

[5] = tested on: PEO1-STOP (PEO-1s) ovarian cancer cell line; experiment: MTT cytotoxicity assay, PEO1-STOP; conditions: PEO1-STOP; MTT; read-out: IC50, viability of ovarian cancer cell line
Method: as §1, §2

[6] = tested on: SKOV-3 ovarian cancer cells; experiment: MTT cytotoxicity assay, SKOV-3; conditions: SK-OV3; MTT; read-out: IC50, viability of ovarian cancer cell line
[7] = tested on: OVCAR-8 ovarian cancer cells; experiment: MTT cytotoxicity assay, OVCAR-8; conditions: OVCAR8, read-out: IC50, viability of ovarian cancer cell line
Method: as §1, §2

For N.N.[Cl][Pt][Cl] [Cisplatin, cis-[PtCl2(NH3)2], reference compound], the IC50 [1] was 4.3 ± 1.8 µM, the “G1 (%)” value (SKOV-3 cells; 24 h, cisplatin 2 μM) was 23.0 ± 0.2% and the “G2/M (%)” value (SKOV-3 cells; 24 h, cisplatin 2 μM) was 8.4 ± 0.3%. For the same compound, the “S (%)” value (SKOV-3 cells; 24 h, cisplatin 2 μM) was 68.6 ± 0.1%, the “G1 (%)” value (SKOV-3 cells; 24 h, cisplatin 5 μM) was 11.6 ± 0.5% and the “G2/M (%)” value (SKOV-3 cells; 24 h, cisplatin 5 μM) was 13.5 ± 0.7%. For the same compound, the “S (%)” value (SKOV-3 cells; 24 h, cisplatin 5 μM) was 75.2 ± 1.0%, the “G1 (%)” value (SKOV-3 cells; 24 h, cisplatin 18 μM) was 49.8 ± 2.3% and the “G2/M (%)” value (SKOV-3 cells; 24 h, cisplatin 18 μM) was 16.6 ± 1.3%. For the same compound, the “S (%)” value (SKOV-3 cells; 24 h, cisplatin 18 μM) was 33.6 ± 1.8%, the “S (%)” value (SKOV-3 cells; 24 h, cisplatin 18 μM, listed as cisplatin) was 33±2% and the “G1 (%)” value (SKOV-3 cells; 24 h, cisplatin 20 μM) was 67.7 ± 1.2%. The “G2/M (%)” value (SKOV-3 cells; 24 h, cisplatin 20 μM) was 16.3 ± 0.9%, the “S (%)” value (SKOV-3 cells; 24 h, cisplatin 20 μM) was 16.0 ± 1.2% and the “G1 (%)” value (SKOV-3 cells; 48 h, cisplatin 18 μM) was 40.4 ± 0.8%. The “G2/M (%)” value (SKOV-3 cells; 48 h, cisplatin 18 μM) was 21.2 ± 1.0%, the “S (%)” value (SKOV-3 cells; 48 h, cisplatin 18 μM) was 38.4 ± 0.5% and the IC50 [2] was 2.1 ± 0.4 µM. For the same compound, the “G1 (%)” value (OVCAR-8 cells; 24 h) was 4.6 ± 2.0%, the “G2/M (%)” value (OVCAR-8 cells; 24 h) was 13.4 ± 0.6% and the “S (%)” value (OVCAR-8 cells; 24 h) was 81.9 ± 1.6%. The “G1 (%)” value (OVCAR-8 cells; 48 h) was 0.85 ± 0.3%, the “G2/M (%)” value (OVCAR-8 cells; 48 h) was 78.5 ± 2.2% and the “S (%)” value (OVCAR-8 cells; 48 h) was 20.7 ± 2.1%. The “sensitivity to cisplatin, PP2Ac knockdown compared to non-targeted control” value [3] was “sensitized”, the IC50 [4] was 8 ± 1.9 µM and the IC50 [5] was 2.3 ± 0.3 µM. For the same compound, the IC50 [6] was 7.6 ± 1.6 µM and the IC50 [7] was 7.2 ± 2.3 µM.
